Test results published in patent publication US20260209242A1, “CAMPTOTHECIN DERIVATIVE, PHARMACEUTICAL COMPOSITION, AND PREPARATION METHOD AND USE THEREFOR” (priority 2022, published 2026).

Tests used:
[1] = tested on: MDA-MB-468; experiment: Inhibition of proliferation of cells MDA-MB-468 (CelltiterGlo, 72 h); format: cell-based; conditions: Homo sapiens; MDA-MB-468 cells, 72 h, CTG; read-out: IC50 (nM), antiproliferative activity on MDA-MB-468
Description: • (1) Cell plating: first, tumor cells MDA-MB-468 were cultured using a corresponding culture medium, trypsinized, centrifuged, resuspended for counting, adjusted to an appropriate concentration, and then plated on a 384-well plate. • (2) Co-incubation of the compounds and tumor cells: after the cells adhered to the wall, 100 nL of a diluted bioactive substance (test compound) was added to the cell culture plate using ECHO, the final concentration of DMSO in wells of the cell plate was 0.33%, and the incubation was performed in an incubator at 37° C. with […] for 72 h. • (3) After the incubation was complete, 30 μL of a CTG reagent (CelltiterGlo kit) was added to each well. The culture was oscillated on a fast oscillator for 2 min, centrifuged at 1,000 rpm for 1 min, and kept away from light at room temperature for 30 min. The chemiluminescence signal value was read using an Envision instrument. • (4) Cell viability detection: IC50 was calculated using GraphPad Prism 8 software, and the IC50 of the compounds was obtained using the following nonlinear fitting formula (see Table 2):
[formula] • Y: inhibition rate: X: log value of compound concentration;
[formula] • high-reading control wells: cells with addition of 100 nL DMSO; and • low-reading control wells: cell-free wells.

[2] = Stability of compounds in human plasma; format: in vitro ADME; conditions: 5 μmol/L
[3] = Pharmacokinetic test in SD rats; conditions: male, Sprague-Dawley (SD), rat, in vivo, iv, 2 mg/kg
Description: After a single intravenous injection (dose: 2 mpk) of the compounds 6-2, 11-2, 17-2, and Dxd into male SD rats (blood collection time points: 0.083 h, 0.25 h, 0.5 h, 1 h, 2 h, 4 h, 8 h, and 24 h after IV administration, totaling 8 blood collection time points), average pharmacokinetic parameters in the plasma are as shown in Table 5: […]

[4] = molecular target: T1, CYP1A2 (Homo sapiens, UniProt P05177); experiment: Inhibition on human hepatomicrosomes CYP1A2
T1 sequence (P05177 1-516): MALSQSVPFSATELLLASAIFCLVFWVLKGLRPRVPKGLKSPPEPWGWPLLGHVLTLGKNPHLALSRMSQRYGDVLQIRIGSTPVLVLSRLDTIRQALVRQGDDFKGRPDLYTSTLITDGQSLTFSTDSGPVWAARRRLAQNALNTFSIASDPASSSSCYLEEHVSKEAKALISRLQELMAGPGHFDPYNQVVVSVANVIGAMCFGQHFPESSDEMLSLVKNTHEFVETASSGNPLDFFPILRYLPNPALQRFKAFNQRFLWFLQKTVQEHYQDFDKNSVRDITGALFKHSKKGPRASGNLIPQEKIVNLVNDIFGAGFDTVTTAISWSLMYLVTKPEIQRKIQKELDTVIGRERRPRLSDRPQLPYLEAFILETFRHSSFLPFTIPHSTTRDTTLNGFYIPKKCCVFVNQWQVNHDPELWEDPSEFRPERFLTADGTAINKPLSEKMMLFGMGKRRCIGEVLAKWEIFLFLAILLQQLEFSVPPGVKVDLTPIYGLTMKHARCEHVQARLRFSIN

## CC[C@@]1(O)C(=O)OCc2c1cc1n(c2=O)Cc2c-1nc1cc(F)c(C)c3c1c2[C@@H](NC(=O)[C@@H](O)C1CC1)CCC3 [Compound 11-2, (S)-2-cyclopropyl-N-((1S,10S)-10-ethyl-6-fluoro-10-hydroxy-5-methyl-11,14-dioxo-1,2,3,4,10,11,14,16-octahydro-13H-cyclohepta[de]pyrano[3′,4′:6,7]indolizino[1,2-b]quinolin-1-yl)-2-hydroxyacetamide]
[1]
  IC50: 4.5 nM
[2]
  Residual percentage (%) 4 h: 93.40%
[3]
  AUC(0-inf): 465 ng·h/mL
  AUC(0-t): 460 ng·h/mL
  C0: 848 ng/mL
  Vd: 3.01 L/kg
  clearance: 72.7 mL/min/kg
  half-life: 37.8 min
[4]
  IC50: > 30000 nM
